From patent US11780841B2, “3,6-methano-1H-pyrrolo[3,2-b]pyridine and 3,6-methano-1H-pyrrolo[3,2-c]pyridine compounds and medicaments using same” (priority 2018, dated 2023) come the findings set out here.

SMILES strings stand for the structures. A value given as a limit tells only on which side of the number the result lay.

The experiment deals with recombinant rabies virus 1088 strain expressing Gaussia Luciferase (GLuc) (1088/GLuc). The format is cell-based. Particulars: read-out: Anti-rabies activity.
As to `CC(C)CC[C@@H]1[C@@H]2[C@@H]3CN[C@@]1(C(=O)NCc1ccccc1)C[C@@H]3CN2CC(C)C` [IF-675], the IC50 was less than 5 µM.
On to `CC(C)CNC(=O)[C@@]12C[C@@H]3CN(CC(C)C)[C@@H]([C@@H]3CN1)[C@H]2CCc1ccccc1` [IF-679], for which the IC50 is less than 5 µM.
Under `CC(C)CNC(=O)[C@@]12C[C@@H]3CN(CC(C)C)[C@@H]([C@@H]3CN1)[C@H]2Cc1cccc2ccccc12` [IF-680] stands 10 to 30 µM.
Regarding `CC(C)CCNC(=O)[C@@]12C[C@@H]3CN(Cc4ccc(O)cc4)[C@@H]([C@@H]3CN1)[C@H]2Cc1cccc2ccccc12` [IF-684], the IC50 lay within 10 to 30 µM.
In the case of `CC(C)CCNC(=O)[C@@]12C[C@@H]3CN(Cc4ccccc4)[C@@H]([C@@H]3CN1)[C@H]2CC(C)C` [IF-691], the IC50 was in the range of 10 to 30 µM.
On to `CCCCCCNC(=O)[C@@]12C[C@@H]3CN(Cc4ccccc4)[C@@H]([C@@H]3CN1)[C@H]2Cc1ccc(O)cc1` [IF-692], for which the IC50 is less than 5 µM.
As for `CC(C)C[C@@H]1[C@@H]2[C@@H]3CN[C@@]1(C(=O)NCCC(N)=O)C[C@@H]3CN2CCc1ccccc1` [IF-699], the IC50 was in the range of 10 to 30 µM.
In the case of `CC(C)CCN1C[C@H]2C[C@]3(C(=O)NCc4cccc5ccccc45)NC[C@H]2[C@H]1[C@H]3CC(C)C` [IF-705], the IC50 is less than 5 µM.
Regarding `CC(C)CCN1C[C@H]2C[C@]3(C(=O)NCc4cccc5ccccc45)NC[C@H]2[C@H]1[C@H]3Cc1ccc(O)cc1` [IF-706], the IC50 was less than 5 µM.
As to `CC(C)CCNC(=O)[C@@]12C[C@@H]3CN(CCc4ccccc4)[C@@H]([C@@H]3CN1)[C@H]2Cc1ccc(O)cc1` [IF-707], the IC50 is less than 5 µM.
Take `O=C(NCCc1ccccc1)[C@@]12C[C@@H]3CN(Cc4cccc5ccccc45)[C@@H]([C@@H]3CN1)[C@H]2Cc1ccc(O)cc1` [IF-708]: the IC50 is less than 5 µM.
Take `CC(C)CCNC(=O)[C@@]12C[C@@H]3CN(CC4CCCCC4)[C@@H]([C@@H]3CN1)[C@H]2Cc1ccc(O)cc1` [IF-709]: the IC50 is 10 to 30 µM.
As for `O=C(NCCc1ccccc1)[C@@]12C[C@@H]3CN(CC4CCCCC4)[C@@H]([C@@H]3CN1)[C@H]2Cc1ccccc1` [IF-710], the IC50 was less than 5 µM.
`CC(C)C[C@@H]1[C@@H]2[C@@H]3CN[C@@]1(C(=O)NCCc1ccccc1)C[C@@H]3CN2CC1CCCCC1` [IF-711]: the IC50 is 10 to 30 µM.
Regarding `CC(C)C[C@@H]1[C@@H]2[C@@H]3CN[C@@]1(C(=O)NCCc1ccccc1)C[C@@H]3CN2Cc1ccc(F)cc1` [IF-714], the IC50 is less than 5 µM.
Under `O=C(NCCc1ccccc1)[C@@]12C[C@@H]3CN(Cc4ccc(F)cc4)[C@@H]([C@@H]3CN1)[C@H]2Cc1ccc(O)cc1` [IF-715] stands less than 5 µM.
On to `CC(C)CC[C@@H]1[C@@H]2[C@@H]3CN[C@@]1(C(=O)NCCc1ccccc1)C[C@@H]3CN2CC1CCCCC1` [IF-717], for which the IC50 is less than 5 µM.
Consider `O=C(NCCc1ccccc1)[C@@]12C[C@@H]3CN(CC4CCCCC4)[C@@H]([C@@H]3CN1)[C@H]2Cc1cccc2ccccc12` [IF-718], for which the IC50 was less than 5 µM.
On to `CC(C)C[C@@H]1[C@@H]2[C@@H]3CN[C@@]1(C(=O)NCCc1ccccc1)C[C@@H]3CN2Cc1ccccc1` [IF-721], for which the IC50 is less than 5 µM.
`O=C(NCCc1ccccc1)[C@@]12C[C@@H]3CN(Cc4ccccc4)[C@@H]([C@@H]3CN1)[C@H]2Cc1ccc(O)cc1` [IF-722]: the IC50 was less than 5 µM.
Under `CC(C)CC[C@@H]1[C@@H]2[C@@H]3CN[C@@]1(C(=O)NCCc1ccccc1)C[C@@H]3CN2Cc1ccccc1` [IF-723] stands 10 to 30 µM; under `CC(C)C[C@@H]1[C@@H]2[C@@H]3CN[C@@]1(C(=O)NCCc1ccccc1)C[C@@H]3CN2CC(C)C` [IF-725], 10 to 30 µM; under `CC(C)C[C@@H]1[C@@H]2[C@@H]3CN[C@@]1(C(=O)NCc1cccc4ccccc14)C[C@@H]3CN2CC(C)C` [IF-726], 10 to 30 µM.
For the compound `CC(C)CC[C@@H]1[C@@H]2[C@@H]3CN[C@@]1(C(=O)NCCc1ccccc1)C[C@@H]3CN2CC(C)C` [IF-727], the IC50 was less than 5 µM.
Consider `CC(C)CCN1C[C@H]2C[C@]3(C(=O)NCc4ccccc4)NC[C@H]2[C@H]1[C@H]3CC(C)C` [IF-733], for which the IC50 was less than 5 µM.
For `CC(C)CCN1C[C@H]2C[C@]3(C(=O)NCC(C)C)NC[C@H]2[C@H]1[C@H]3Cc1cccc2ccccc12` [IF-734], the IC50 is less than 5 µM.
Turning to `CC(C)CCN1C[C@H]2C[C@]3(C(=O)NCC(C)C)NC[C@H]2[C@H]1[C@H]3Cc1ccccc1` [IF-735], the IC50 lay within 10 to 30 µM.
For the compound `CC(C)CNC(=O)[C@@]12C[C@@H]3CN(CCc4ccccc4)[C@@H]([C@@H]3CN1)[C@H]2CC(C)C` [IF-738], the IC50 is 10 to 30 µM.
For the compound `CC(C)CNC(=O)[C@@]12C[C@@H]3CN(Cc4cccc5ccccc45)[C@@H]([C@@H]3CN1)[C@H]2CC(C)C` [IF-739], the IC50 is less than 5 µM.
As for `CC(C)CC[C@@H]1[C@@H]2[C@@H]3CN[C@@]1(C(=O)NCc1ccccc1)C[C@@H]3CN2CC1CCCCC1` [IF-740], the IC50 was in the range of 10 to 30 µM.
In the case of `CC(C)CNC(=O)[C@@]12C[C@@H]3CN(CC4CCCCC4)[C@@H]([C@@H]3CN1)[C@H]2CC(C)C` [IF-742] it was 10 to 30 µM.
`CC(C)CC[C@@H]1[C@@H]2[C@@H]3CN[C@@]1(C(=O)NCc1ccccc1)C[C@@H]3CN2Cc1ccc(F)cc1` [IF-743]: the IC50 fell in the range of 10 to 30 µM.
For `CC(C)CCNC(=O)[C@@]12C[C@@H]3CN(CCc4ccccc4)[C@@H]([C@@H]3CN1)[C@H]2Cc1ccccc1` [IF-744], the IC50 is less than 5 µM.
On to `CC(C)CN1C[C@H]2C[C@]3(C(=O)NCc4ccccc4)NC[C@H]2[C@H]1[C@H]3Cc1cccc2ccccc12` [IF-753], for which the IC50 lay in the range of 10 to 30 µM.
In the case of `O=C(NCc1cccc2ccccc12)[C@@]12C[C@@H]3CN(CCO)[C@@H]([C@@H]3CN1)[C@H]2Cc1ccccc1` [IF-758], the IC50 is less than 5 µM.
Take `CC(C)CN1C[C@H]2C[C@]3(C(=O)NCc4cccc5ccccc45)NC[C@H]2[C@H]1[C@H]3Cc1cccc2ccccc12` [IF-778]: the IC50 is less than 5 µM.
As to `O=C(NCc1cccc2ccccc12)[C@@]12C[C@@H]3CN(Cc4ccc(O)cc4)[C@@H]([C@@H]3CN1)[C@H]2Cc1cccc2ccccc12` [IF-779], the IC50 was 10 to 30 µM.
Turning to `CC(C)NC(=O)[C@@]12C[C@@H]3CN(Cc4cccc5ccccc45)[C@@H]([C@@H]3CN1)[C@H]2CCc1ccccc1` [IF-789], the IC50 was 10 to 30 µM.
Under `O=C(NCc1cccc2ccccc12)[C@@]12C[C@@H]3CN(Cc4ccccc4)[C@@H]([C@@H]3CN1)[C@H]2Cc1ccccc1` [IF-805] stands 10 to 30 µM; under `CC(C)C[C@@H]1[C@@H]2[C@@H]3CN[C@@]1(C(=O)NCc1ccc(F)cc1)C[C@@H]3CN2Cc1ccccc1` [IF-807], less than 5 µM.
Take `CC(C)CN1C[C@H]2C[C@]3(C(=O)NCc4ccc(F)cc4)NC[C@H]2[C@H]1[C@H]3Cc1ccccc1` [IF-815]: the IC50 is less than 5 µM.
For the compound `CC(C)CCN1C[C@H]2C[C@]3(C(=O)NCCC(=O)O)NC[C@H]2[C@H]1[C@H]3CCc1ccccc1` [IF-830], the IC50 was in the range of 10 to 30 µM.
`CC(C)C[C@@H]1[C@@H]2[C@@H]3CN[C@@]1(C(=O)NCc1cccc4ccccc14)C[C@@H]3CN2Cc1ccccc1` [IF-837]: the IC50 is 5 to 10 µM.
Consider `CC(C)C[C@@H]1[C@@H]2[C@@H]3CN[C@@]1(C(=O)NCc1ccc(C(F)(F)F)cc1)C[C@@H]3CN2Cc1ccccc1` [IF-838], for which the IC50 is 10 to 30 µM.
As for `CC(C)C[C@@H]1[C@@H]2[C@@H]3CN[C@@]1(C(=O)NCc1ccccc1)C[C@@H]3CN2Cc1ccc(Cl)cc1` [IF-839], the IC50 is 5 to 10 µM.
In the case of `CC(C)C[C@@H]1[C@@H]2[C@@H]3CN[C@@]1(C(=O)NCc1ccccc1)C[C@@H]3CN2Cc1cccc(Cl)c1` [IF-840] it was 5 to 10 µM; in that of `COc1ccc(CN2C[C@H]3C[C@]4(C(=O)NCc5ccccc5)NC[C@H]3[C@H]2[C@H]4CC(C)C)cc1` [IF-841], 5 to 10 µM.
Take `Cc1ccc(CN2C[C@H]3C[C@]4(C(=O)NCc5ccccc5)NC[C@H]3[C@H]2[C@H]4CC(C)C)cc1` [IF-842]: the IC50 was less than 5 µM.
Consider `CC(C)CCNC(=O)[C@@]12C[C@@H]3CN(CC(C)C)[C@@H]([C@@H]3CN1)[C@H]2Cc1ccccc1` [IF-845], for which the IC50 lay in the range of 10 to 30 µM.
In the case of `CC(C)C[C@@H]1[C@@H]2[C@@H]3CN[C@@]1(C(=O)NCc1ccc(Cl)cc1)C[C@@H]3CN2CC(C)C` [IF-846] it was 10 to 30 µM; in that of `CC(C)C[C@@H]1[C@@H]2[C@@H]3CN[C@@]1(C(=O)NCc1ccccc1)C[C@@H]3CN2Cc1ccc(N(C)C)cc1` [IF-848], 5 to 10 µM.
Take `CC(C)C[C@@H]1[C@@H]2[C@@H]3CN[C@@]1(C(=O)NCc1ccccc1)C[C@@H]3CN2Cc1ccc(C(C)(C)C)cc1` [IF-849]: the IC50 is 5 to 10 µM.
In the case of `CC(C)CC[C@@H]1[C@@H]2[C@@H]3CN[C@@]1(C(=O)NCc1ccccc1)C[C@@H]3CN2CC(C)C` [IF-850], the IC50 was 5 to 10 µM.
Under `CC(C)CCN1C[C@H]2C[C@]3(C(=O)NCc4ccccc4)NC[C@H]2[C@H]1[C@H]3CC(C)C` [IF-851] stands 10 to 30 µM.
In the case of `CCOc1ccc(CN2C[C@H]3C[C@]4(C(=O)NCc5ccccc5)NC[C@H]3[C@H]2[C@H]4CC(C)C)cc1` [IF-853] it was 5 to 10 µM.
In the case of `CC(C)C[C@@H]1[C@@H]2[C@@H]3CN[C@@]1(C(=O)NCc1ccc4ccccc4c1)C[C@@H]3CN2Cc1ccccc1` [IF-854], the IC50 fell in the range of 5 to 10 µM.
For `CCN1C[C@@H]2[C@H]3CN(Cc4ccc(C)cc4)[C@@H]2[C@@H](CC(C)C)[C@]1(C(=O)NCc1ccccc1)C3` [IF-855], the IC50 fell in the range of 5 to 10 µM.
In the case of `Cc1ccc(CN2C[C@H]3C[C@@]4(C(=O)NCc5ccccc5)[C@H](CC(C)C)[C@@H]2[C@@H]3CN4CC(C)C)cc1` [IF-856] it was less than 5 µM.
In the case of `Cc1ccc(CN2C[C@H]3C[C@@]4(C(=O)NCc5ccccc5)[C@H](CC(C)C)[C@@H]2[C@@H]3CN4C(=O)Cc2ccccc2)cc1` [IF-859] it was 5 to 10 µM; in that of `COC(=O)N1C[C@@H]2[C@H]3CN(Cc4ccc(C)cc4)[C@@H]2[C@@H](CC(C)C)[C@]1(C(=O)NCc1ccccc1)C3` [IF-860], 10 to 30 µM; in that of `Cc1ccc(CN2C[C@H]3C[C@@]4(C(=O)NCc5ccccc5)[C@H](CC(C)C)[C@@H]2[C@@H]3CN4C(=O)OCC(C)C)cc1` [IF-861], 5 to 10 µM.
Take `Cc1ccc(CN2C[C@H]3C[C@@]4(C(=O)NCc5ccccc5)[C@H](CC(C)C)[C@@H]2[C@@H]3CN4C(=O)OCc2ccccc2)cc1` [IF-862]: the IC50 was in the range of 5 to 10 µM.
